Results on 46 compounds are retold here after patent US20150004134A1, “TREATMENT OF CANCER WITH HETEROCYCLIC INHIBITORS OF GLUTAMINASE” (Calithera Biosciences, Inc., priority 2012, published 2015).

In this assay the test system is P493-6 (myc "on") cells. The assay is described as follows: Cell Proliferation Assay. It counts as cell-based. To be noted: P493-6, 72 h. In outline: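 Read-out: either Cell Titer Glo or Guava Viacount flow analysis after 72 h compound treatment of myc-on P493-6 cells (10,000/well, RPMI with 10% FBS) at 37 °C. DMSO held at 0.5% final.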
Where [1] appears, read: read-out: Cell prolif P493 72 h IC50, P493 cells, 72 h.
Where [2] appears, read: read-out: Cell prolif P493 72 h IC50, P493-6 cells, 72 h.

Like-named read-outs stand apart in the source and are kept apart here.

The term IC50 denotes the concentration needed to halve the response being measured. In the case of `O=C(Nc1nnc(CCCc2nnc(NC(=O)C(O)c3ccccc3)s2)s1)C(O)c1ccccc1` (stereo not shown) [Compound 172], under setting [1], the IC50 was 3700 nM. Consider `COc1ccc(OC)c(CC(=O)Nc2nnc(CCCc3nnc(NC(=O)Cc4cc(OC)ccc4OC)s3)s2)c1` [Compound 265], for which, under setting [1], the IC50 amounted to 310 nM. Same read-out and setting: the value for `O=C(Cc1ccccc1Br)Nc1nnc(CCCCc2nnc(NC(=O)Cc3ccccc3Br)s2)s1` [Compound 282] was 370 nM; that for `COC(=O)C(C(=O)Nc1nnc(CCSCCc2nnc(NC(=O)C(C(=O)OC)c3ccccc3)s2)s1)c1ccccc1` (stereo not shown) [Compound 234] was 2500 nM.

Regarding `CC(NC(=O)OC(C)(C)C)c1cccc(CC(=O)Nc2ccc(CCCCc3nnc(NC(=O)C(C)c4ccccc4)s3)nn2)c1` (stereo not shown) [Compound 603], under setting [2], the IC50 is 23 nM. Regarding `O=C(Nc1nnc(CCCCc2nnc(NC(=O)C3CCCC3)s2)s1)C1CCCC1` [Compound 53], the IC50 under setting [1] is 34000 nM. Regarding `O=C(Cc1ccccc1)Nc1nnc(CCSCc2nnc(NC(=O)C(O)c3cccc(Cl)c3)s2)s1` (stereo not shown) [Compound 376], the IC50 under setting [1] is 91 nM. As to `C[C@H](O)C(=O)Nc1nnc(CCCCc2nnc(NC(=O)Cc3ccccc3)s2)s1` [Compound 321], the IC50 under setting [1] was determined as 2600 nM. Same read-out and setting: next, `O=C(Cc1ccccc1)Nc1nnc(CCCCc2nnc(NC(=O)Cc3c(Cl)ccc(O)c3F)s2)s1` [Compound 345]: 240 nM. For `CC(C(=O)Nc1nnc(CCCCc2ccc(NC(=O)Cc3ccccc3)nn2)s1)c1ccc(F)c(CNC(=O)OC(C)(C)C)c1` (stereo not shown) [Compound 568], the 50% inhibitory concentration (IC50) under setting [2] worked out at 28 nM. For the compound `O=C(Cc1cccc(OCCN2CCOCC2)c1)Nc1nnc(CCSCc2nnc(NC(=O)Cc3cccc(OCCN4CCOCC4)c3)s2)s1` [Compound 267], the IC50 under setting [1] is 640 nM. Same read-out and setting: the value for `O=C(Cc1cccc(Cn2cccn2)c1)Nc1nnc(CCCCc2nnc(NC(=O)Cc3cccc(Cn4cccn4)c3)s2)s1` [Compound 362] was 54 nM. As to `CC(C(=O)Nc1nnc(CCCCc2ccc(NC(=O)Cc3cccc(CNC(=O)OCCF)c3)nn2)s1)c1ccccc1` (stereo not shown) [Compound 591], the IC50 under setting [2] stood at 33 nM.

On to `COCCOC(C(=O)Nc1nnc(CCCCc2nnc(NC(=O)C(OCCOC)c3ccccc3)s2)s1)c1ccccc1` (stereo not shown) [Compound 203], for which, under setting [1], the half-maximal inhibitory concentration (IC50) was 1700 nM.

`CCCC(=O)OCN(C(=O)Cc1ccccc1)c1nnc(CCSCCc2nnc(NC(=O)Cc3ccccc3)s2)s1` [Compound 7]: the IC50 under setting [1] turned out to be 1000 nM. On to `CN(C)Cc1cccc(CC(=O)Nc2nnc(CCCCc3nnc(NC(=O)Cc4ccccc4)s3)s2)c1` [Compound 394], for which the IC50 under setting [2] was found to be 1200 nM. On to `O=C(Nc1nnc(CCCCc2nnc(NC(=O)C3Cc4cc(Br)ccc4O3)s2)s1)C1Cc2cc(Br)ccc2O1` (stereo not shown) [Compound 122], for which, under setting [1], the IC50 turned out to be 43000 nM. As to `CC1(C)OC(=O)[C@@H](CC(=O)Nc2nnc(CCCCc3nnc(NC(=O)C[C@H]4OC(C)(C)OC4=O)s3)s2)O1` [Compound 103], the IC50 under setting [1] is more than 50000 nM. As for `O=C(Cc1cccnc1)Nc1nnc(CCCCc2nnc(NC(=O)Cc3cccnc3)s2)s1` [Compound 311], the IC50 under setting [1] is 22000 nM.

In the case of `N[C@@H](CO)C(=O)Nc1nnc(CCCCc2nnc(NC(=O)[C@@H](N)CO)s2)s1` [Compound 140], the IC50 under setting [1] was more than 50000 nM. In the case of `CC(C)(C)OC(=O)N1CCN(Cc2cccc(CC(=O)Nc3nnc(CCSCc4nnc(NC(=O)Cc5cccc(CN6CCN(C(=O)OC(C)(C)C)CC6)c5)s4)s3)c2)CC1` [Compound 275], the concentration for half-maximal inhibition (IC50) under setting [1] was 340 nM. Still for that read-out and setting: the value for `COc1cccc(CC(=O)Nc2nnc(CCSCCc3nnc(NC(=O)Cc4cccc(OC)c4OC)s3)s2)c1OC` [Compound 259] was 570 nM; that for `O=C(CC1CCNCC1)Nc1nnc(CCSCCc2nnc(NC(=O)CC3CCNCC3)s2)s1` [Compound 129] was more than 50000 nM; that for `O=C(CCC(C(=O)O)c1ccccc1)Nc1nnc(CCSCCc2nnc(NC(=O)CCC(C(=O)O)c3ccccc3)s2)s1` (stereo not shown) [Compound 179] was more than 50000 nM. As to `COC(=O)NC(C)c1cccc(CC(=O)Nc2ccc(CCCCc3nnc(NC(=O)Cc4ccccc4)s3)nn2)c1` (stereo not shown) [Compound 589], the IC50 under setting [2] was determined as 25 nM.

Turning to `O=C(CN1CCOCC1)NCc1ccc(CC(=O)Nc2nnc(CCCCc3ccc(NC(=O)Cc4ccccc4)nn3)s2)cc1` [Compound 442], under setting [2], the IC50 was 25 nM. On to `CC(C)[C@H](N)C(=O)Nc1nnc(CCSCCc2nnc(NC(=O)Cc3ccccc3)s2)s1` [Compound 32], for which, under setting [1], the IC50 worked out at 11000 nM. Regarding `CCCCOC(=O)Nc1nnc(CCCCc2nnc(NC(=O)Cc3ccccc3)s2)s1` [Compound 388], the IC50 under setting [1] was found to be 750 nM.

`CC(C)(C)OC(=O)Nc1ccc(CC(=O)Nc2nnc(CCSCCc3nnc(NC(=O)Cc4ccc(NC(=O)OC(C)(C)C)cc4)s3)s2)cc1` [Compound 185]: the half-inhibitory concentration (IC50) under setting [1] was determined as 90 nM. Consider `CC(C)NC(=O)OC(C)c1cccc(CC(=O)Nc2nnc(CCCCc3ccc(NC(=O)Cc4ccccc4)nn3)s2)c1` (stereo not shown) [Compound 598], for which the IC50 under setting [2] was 4 nM.

Take `O=C(Nc1nnc(CCCCc2nnc(NC(=O)C(OCCO)c3ccccc3)s2)s1)C(OCCO)c1ccccc1` (stereo not shown) [Compound 252]: the half-maximal inhibitory concentration (IC50) under setting [1] was 6300 nM. Regarding `CC(NC(=O)OC(C)(C)C)c1cc(CC(=O)Nc2ccc(CCCCc3nnc(NC(=O)Cc4ccccc4)s3)nn2)ccc1F` (stereo not shown) [Compound 654], the IC50 under setting [2] was determined as 7 nM. Regarding `COc1cc(C(O)C(=O)Nc2nnc(CCCCc3nnc(NC(=O)C(O)c4ccc(O)c(OC)c4)s3)s2)ccc1O` (stereo not shown) [Compound 319], the 50% inhibitory concentration (IC50) under setting [1] worked out at 10000 nM. Still for that read-out and setting: the value for `O=C(Cc1ccccc1)Nc1nnc(CCCCc2nnc(NC(=O)OCc3ccccc3)s2)s1` [Compound 374] was 470 nM. For `CC(C)(C)OC(=O)Nc1cccc(CC(=O)Nc2nnc(CCCCc3ccc(NC(=O)Cc4ccccc4)nn3)s2)c1` [Compound 399], the half-maximal inhibitory concentration (IC50) under setting [2] is 26 nM. `O=C(Cc1ccccc1)Nc1nnc(CCCCc2nnc(NC(=O)Cc3ccc(F)c(O)c3F)s2)s1` [Compound 346]: the concentration for half-maximal inhibition (IC50) under setting [1] amounted to 87 nM. Take `N#Cc1cccc(CC(=O)Nc2nnc(CCSCCc3nnc(NC(=O)Cc4cccc(C#N)c4)s3)s2)c1` [Compound 155]: the 50% inhibitory concentration (IC50) under setting [1] is 1900 nM. As to `CN(C(=O)Cc1ccccc1)c1nnc(CCSCCc2nnc(N(C)C(=O)Cc3ccccc3)s2)s1` [Compound 6], the half-inhibitory concentration (IC50) under setting [1] was found to be 2700 nM. In the case of `COc1ccc2c(c1)CC(C(=O)Nc1nnc(CCCCc3nnc(NC(=O)C4Cc5cc(OC)ccc5O4)s3)s1)O2` (stereo not shown) [Compound 121], the IC50 under setting [1] is 3500 nM.

`O=C(Cc1ccccc1)Nc1nnc(CCSCCc2nnc(NC(=O)[C@@H]3CCCN3C(=O)C(F)(F)F)s2)s1` [Compound 35]: the half-inhibitory concentration (IC50) under setting [1] amounted to 3800 nM.

As to `COC(C(=O)Nc1nnc(CCCCc2ccc(NC(=O)Cc3cccc(CNC(=O)CC(C)(O)C(F)(F)F)c3)nn2)s1)c1ccccc1` (stereo not shown) [Compound 605], under setting [2], the half-inhibitory concentration (IC50) turned out to be 18 nM. Take `O=C(Cc1cccc(F)c1)Nc1nnc(CCCCc2nnc(NC(=O)Cc3cccc(F)c3)s2)s1` [Compound 273]: under setting [1], the IC50 amounted to 70 nM. Take `COc1cccc(CC(=O)Nc2nnc(CCSCCc3nnc(NC(=O)Cc4cccc(OC)c4)s3)s2)c1` [Compound 156]: the concentration for half-maximal inhibition (IC50) under setting [1] amounted to 630 nM. Consider `COc1cccc(C(O)C(=O)Nc2nnc(CCCCc3ccc(NC(=O)Cc4ccccc4)nn3)s2)c1` (stereo not shown) [Compound 317], for which the IC50 under setting [1] was 10 nM. On to `O=C(Cc1ccccc1)Nc1nnc(CCCCc2nnc(NC(=O)Cc3cccc(OCCN4CCOCC4)c3)s2)s1` [Compound 390], for which the half-maximal inhibitory concentration (IC50) under setting [1] was 160 nM. Regarding `CO[C@@H](C(=O)Nc1nnc(CCCCc2nnc(NC(=O)[C@H](OC)c3ccccc3)s2)s1)c1ccccc1` [Compound 147], the 50% inhibitory concentration (IC50) under setting [1] came to 370 nM.
